Results taken from PMC7586797, “Phase 1 Study to Evaluate the Effect of the Investigational Anticancer Agent Sapanisertib on the QTc Interval in Patients With Advanced Solid Tumors” (Clinical Pharmacology in Drug Development, 2020).
Values joined by “and” are separate entries in the source; they are usually repeats but may differ in a detail not shown here. Identical values can stand only once. Like-named read-outs stand apart in the source and are kept apart here.

Assays:
[1] = tested on: human ether‐à‐go‐go channel; assay: In vitro hERG channel inhibition; type: biochemical; conditions: free Cmax 0.3 µM at 40 mg
[2] = tested on: breast cancer‐ resistance protein; parameters: method as in Takeda data on file; conditions: in vitro; ref Takeda data on file; cited from earlier work
[3] = Plasma pharmacokinetics after single 40 mg oral dose (LC-MS/MS, noncompartmental); type: in vivo, human; conditions: 40 mg single oral dose; for AUC(0-inf) / Cmax / Tmax / half-life: human, po, 40 mg
Protocol: (§1) On cycle 1 day 1, triplicate ECGs and plasma samples for PK were collected from patients ≤15 minutes prior to dosing and at 15 minutes; 30 minutes; and 1‐, 1.5‐, 2‐, 2.5‐, 3‐, 4‐, 6‐, 8‐, and 10‐hour time points after receiving a single oral dose of 40‐mg sapanisertib. The Holter recorders and ECG leads were removed from patients after collection of the 10‐hour time point ECG on day 1, following which patients were furloughed from site. Additional collections of ECGs and plasma samples for PK were conducted at 24 (cycle 1 day 2) and 48 hours (cycle 1 day 3) after dosing. After the first week, that is, cycle 1 day 8, patients had the option to continue to receive treatment with sapanisertib at a dose of 30 mg once weekly in continuous 28‐day cycles until disease progression, unacceptable toxicity, withdrawal of consent, or completion of the 12‐month maximum study duration.
Plasma samples were analyzed for sapanisertib using a validated liquid chromatography with tandem mass spectrometry method with deuterated sapanisertib used as the internal standard. Multiple reactant monitoring was performed using a positive electrospray method for the mass transitions (m/z) of 310.0 to 268.1 for sapanisertib and 317.0 to 269.1 for deuterated sapanisertib. A Shimadzu high‐pressure liquid chromatography system and Sciex API 4000 tandem mass spectrometry system were used with an Agilent Eclipse plus C18, 50 × 4.6 mm, 3.50‐µm column. For extraction, 50 µL of diluent (0.1% formic acid in acetonitrile/water, 50:50, v/v) and 20 µL of internal standard solution (0.5 µg/mL in diluent) were added to 50 µL of ethylenediaminetetraacetic acid plasma followed by vortex mixing. Plasma proteins were precipitated by adding 500 µL of 0.2% formic acid in acetonitrile followed by vortex mixing for 2 minutes and centrifugation for 5 minutes. A 40‐µL aliquot of the supernatant was transferred to a high‐pressure liquid chromatography vial containing 400 µL of reconstitution solution (10 mM ammonium formate and 10 mM citric acid in acetonitrile/water, 20:80, v/v). Injection volume was 10 µL. A gradient mobile phase (from 20% to 98%) was used, composed of mobile phase A: 0.1% formic/4 mM ammonium formate in water and mobile phase B: 0.1% formic acid and 4 mM ammonium formate in acetonitrile/water 98:2, v/v). The sapanisertib retention time was 1.7 minutes. The dynamic range of the assay was 1 to 1000 ng/mL. Assay accuracy expressed as %bias for the quality control samples ranged from –4.0% to –2.7% and assay precision expressed as percentage coefficient of variation (%CV) for quality control samples, ranged from 3.0% to 9.5% in plasma.
(§2) PK parameters were calculated by noncompartmental methods using WinNonLin Professional version 6.1 (Certara, Princeton, New Jersey). The PK analysis population was defined as all patients who received at least 1 dose of sapanisertib and had sufficient concentration‐time data to calculate ≥1 PK parameters. The safety population included all patients who received ≥1 dose of sapanisertib, according to the National Cancer Institute Common Terminology Criteria for Adverse Events, version 4.03.

[4] = tested on: organic cation transporter 2; parameters: method as in Takeda data on file; conditions: in vitro; ref Takeda data on file; cited from earlier work
CYP and UGT enzymes = tested on: CYP and UGT enzymes; parameters: method as in Takeda, data on file; conditions: in vitro reaction phenotyping; ref Takeda, data on file; cited from earlier work
[5] = cited from earlier work; for Geometric Mean Cmax: fasted, immediate release capsules, advanced solid tumors, ref data on file 14
[6] = parameters: method as in Takeda, data on file; conditions: human hepatocytes; ref Takeda, data on file; cited from earlier work
[7] = tested on: patients with advanced solid tumors; conditions: in vivo
Source text: The relationships between concentration of sapanisertib and QTc and RR intervals were quantitatively analyzed in the PK/QTc analysis population using PK and ECG data from all patients. The data were first explored by graphical analysis, including a visual check for evidence of hysteresis. Mixed‐effects models were subsequently developed to describe the direct effect of sapanisertib on change from time‐matched baseline in RR, QTcI, and QTcF.
Standard diagnostic and goodness‐of‐fit plots were used for model evaluation and adequacy, plausibility, and precision of parameter estimates. A visual predictive check for the final model was generated to evaluate whether the model provided an accurate description of the data. The estimated parameters were reported with the standard error of the estimates as a measure of uncertainty, and nonparametric bootstrap resampling was used to construct 95%CI for the population parameters in each model. All model development was conducted with a qualified installation of the nonlinear mixed‐effects modeling software, version 7.3 (ICON Development Solutions, Hanover, Maryland). All data analyses were conducted using a qualified installation of the statistical software R.
A linear mixed‐effects model was used to characterize the direct effect of sapanisertib plasma concentration on ΔQTcI. […] The linear mixed‐effects model of sapanisertib plasma concentration versus ΔQTcI was subsequently used to predict the effect of sapanisertib on QTcI at the expected Cmax values for 4‐, 30‐, and 40‐mg sapanisertib doses. […] Model‐based simulations from the fitted model for ΔQTcI versus sapanisertib plasma concentration were used to generate CIs across the range of observed concentrations and to estimate the probability of patient ΔQTcI values exceeding 30‐ and 60‐millisecond thresholds at Cmax values corresponding to the 4‐, 30‐, and 40‐mg doses (Table 4).

[8] = parameters: method as in data on file; conditions: in vitro; ref data on file; cited from earlier work
monkey = tested on: monkey; parameters: method as in data on file; conditions: ref data on file, cited from earlier work
[9] = tested on: patients with advanced solid tumors; assay: Safety: adverse events (NCI CTCAE v4.03); type: in vivo, human
Protocol: as §1, §2

CYP enzymes = conditions: in vitro, clinically relevant concentrations; cited from earlier work

CC(C)n1nc(-c2ccc3oc(N)nc3c2)c2c(N)ncnc21 [sapanisertib]
hERG IC50 as multiple of anticipated free Cmax [1]: ~583 times
IC50 [2]: 51.9 µM
CL (apparent clearance), Geometric mean (%CV) ([3]; empty stomach): 16.1 L/h and 16.1 (46.3) L/h
CL (apparent clearance), Mean (SD) ([3]; empty stomach): 18.3 (8.5) L/h
CL (apparent clearance), Median (range) ([3]; empty stomach): 18.0 (3.1–41.8) L/h
AUC(0-inf) ([3]; empty stomach, read-out: AUC∞, Geometric mean (%CV)): 2480 ng·h/mL
AUC(0-inf) ([3]; empty stomach, read-out: AUC∞, Mean (SD)): 2990 ng·h/mL
AUC(0-inf) ([3]; empty stomach, read-out: AUC∞, Median (range)): 2220 ng·h/mL
Cmax ([3]; empty stomach, read-out: Cmax, Geometric mean (%CV)): 297 ng/mL
Cmax ([3]; empty stomach, read-out: Cmax, Mean (SD)): 337 ng/mL
Cmax ([3]; empty stomach, read-out: Cmax, Median (range)): 317 ng/mL
Tmax ([3]; empty stomach, read-out: Tmax, Geometric mean (%CV)): 1.73 h
Tmax ([3]; empty stomach, read-out: Tmax, Mean (SD)): 2.51 h
Tmax ([3]; empty stomach, read-out: Tmax, Median (range)): 1.52 h
half-life ([3]; no unit in table (hours), read-out: T1/2 (terminal disposition half-life), Geometric mean (%CV) (converted)): 9.06 h
half-life ([3]; no unit in table (hours), read-out: T1/2 (terminal disposition half-life), Mean (SD) (converted)): 9.48 h
half-life ([3]; no unit in table (hours), read-out: T1/2 (terminal disposition half-life), Median (range) (converted)): 9.07 h
half-life ([3]; standard deviation 2.9 hours, read-out: Mean plasma half-life (converted)): 9.5 h
IC50 [4]: 1.9 µM
CYP enzymes participating in oxidative metabolism (CYP and UGT enzymes): CYP1A2, 3A4, and 2C19
Geometric Mean Cmax ([5]; 4 mg once daily): 36.9 ng/mL ^a
Geometric Mean Cmax ([5]; 30 mg once weekly): 235 ng/mL ^b
Anticipated free maximum plasma concentration (Cmax) ([5]; 40 mg, cancer patients): 300 nM
Cmax ([5]; 40 mg, cancer patients, read-out: Total Cmax): 960 nM
Dose linearity of pharmacokinetics ([5]; 2- to 40-mg dose range): dose‐linear pharmacokinetics
Accumulation ratio ([5]; once-daily administration): ~1
Accumulation ([5]; once-weekly administration): does not accumulate
Share of hepatic metabolism mediated by cytochrome P450 (CYP) isozymes [6]: ~60%
Share of hepatic metabolism mediated by other non-CYP enzymes [6]: ~20%
Share of hepatic metabolism mediated by uridine 5'-diphospho-glucuronosyltransferases [6]: ~20%
Estimated probability that ΔQTcF would exceed 30 milliseconds or 60 milliseconds ([7]; human): < 0.0001
Association of ΔQTcF with plasma concentration [7]: weakly negative association
Association of ΔQTcI with plasma concentration [7]: weakly negative association
Association of ΔRR with plasma concentration [7]: weakly positive association
Bound to human plasma proteins [8]: 70.5%
Estimated free Cmax (monkey; 0.5 mg/kg): 230 nM
Electrocardiographic changes (monkey; single- or multiple-dose, up to 0.5 mg/kg): no remarkable electrocardiographic changes
Patients who died during the study ([9]; N = 44, neither death considered related to study drug): Two
AE of special interest: asthenic conditions ([9]; human, in vivo): 61%
AE of special interest: hyperglycemia ([9]; human, in vivo): 18%
AE of special interest: mucosal inflammation ([9]; human, in vivo): 25%
AE of special interest: rash ([9]; human, in vivo): 20%
AE of special interest: renal insufficiency ([9]; human, in vivo): 5%
Dehydration, grade ≥3 ([9]; human, in vivo): 5%
Diarrhea, grade ≥3 ([9]; human, in vivo): 5%
Fatigue, any grade ([9]; human, in vivo): 61%
Fatigue, grade ≥3 ([9]; human, in vivo): 16%
Hyperglycemia, grade ≥3 ([9]; human, in vivo): 5%
Nausea, any grade ([9]; human, in vivo): 80%
Patients who experienced adverse events ([9]; human, in vivo): 98%
Patients with grade ≥3 AEs ([9]; human, in vivo): 59%
Stomatitis, grade ≥3 ([9]; human, in vivo): 5%
Vomiting, any grade ([9]; human, in vivo): 57%
Patients who discontinued study due to AEs ([9]; in vivo): Four
Inhibition or induction of CYP enzymes (CYP enzymes): did not inhibit or induce CYP enzymes
